From patent US20250064945A1 (Arvinas Operations, Inc., priority 2021, published 2025)

Target: T1, BRM (Homo sapiens, UniProt P51531)
T1 construct: In-Cell Western Screen of BRM Degradation in SW1573 Cells; endogenous in cells; host or cells: SW1573 cells
Assay: Western blot / In-Cell Western screen of BRM degradation in SW1573 cells
Type: cell-based
Conditions: overnight (18-20 hours) treatment; for Dmax: read-out: Dmax (%) (% degraded)
Procedure: Western Blot Screen of BRM Degradation in SW1573 Cells
(§1) To assess BRM degradation (Dmax and DC50) cells were seeded at 8000/well in 96-well black/clear-bottom plates in 180 μL DMEM growth media (containing 1% pen-strep, 1% HEPES and 10% FBS) per well. Plates were incubated overnight to allow adhesion. The next morning cells were treated by adding 20 μL of 10× target compound concentration (1% DMSO) to appropriate wells and returned to incubator for overnight (18-20 hours). The final DMSO concentration was 0.1%.
For lysing, adherent cells were washed once with 100 μL of DPBS. Cells were lysed in 40 μL of 1× RIPA+HALT protease inhibitor on ice for 10 minutes and frozen until use at −80° C. Thawed lysates were cleaned by filtration in 1.2 µm filter plates, or alternatively, were spun clean at 2300 g at 4° C. for 30 minutes.
For blotting, for each Western sample 30 μL of lysate was added to 10 μL of 4×LDS sample buffer, then denatured at 95° C. for 5 minutes in the thermal cycler and placed on ice. Samples were loaded on 4-15% Tris/Glycine gels and run for 25 minutes at 250 constant volts in 1×Tris/Glycine buffer with 4 μL of ladder and 12 μL of each sample loaded for each blot. Protein was transferred from gels to NC with BioRad Turbo dry-transfer unit with the Turbo/midi default program. All blots were rinsed with ddH2O and blocked for 1 hour at room temperature in 5% BSA in TBST (0.1%) on rocker. Blots were exposed to primary antibody in 5% BSA in TBST (0.1%) overnight at 4° C. on rocker (1:1000 for BRM (Cell Signaling Tech. cat #11966) and 1:2000 for alpha-tubulin (Cell Signaling Tech. cat #3873), a control protein. Blot was washed with TBST (0.1%) three times for 5 minutes on rocker at room temperature. Secondary antibody was added, and blots were incubated on a room temperature rocker for 1 hour with 1:18,000 anti-rabbit-HRP and/or anti-mouse-HRP in 5% BSA in TBST (0.1%). Blots were washed three times in TBST (0.1%) for 5 minutes at room temperature on the rocker. Signal was developed with Femto Maximum Sensitivity substrate for 4 minutes and blots read on ChemiDoc™.
In-Cell Western Screen of BRM Degradation in SW1573 Cells
as §1, with “DC50),” for “DC50)”, “10×” for “10× target”, “compound” for “compound concentration”
For processing, the plates were removed from incubator, the media was removed, and immediately 200 μL of cold (4° C.) DPBS was added to all wells. DPBS was then removed, and 50 μL of 4% paraformaldehyde (PFA) in DPBS (4° C.) was added to all wells, and the plates were incubated at room temperature for 20 minutes. PFA was then removed, and 200 μL of TBS-T containing 0.5% Triton X-100 was added to all wells, and the plates were incubated at room temperature for 30 minutes. TBS-T containing 0.5% Triton X-100 was then removed, and 50 μL of Li-Cor blocking solution was added, and the plates were incubated at room temperature for a minimum of one hour. The blocking solution was removed, and 50 μL of Li-Cor blocking solution containing primary antibody cocktail was added (1:1000 for BRM (Cell Signaling Tech. cat #11966) and 1:2000 for alpha-tubulin (Sigma cat #T6074), a control protein. Plates were then placed in cold room until the next day.
The next day plates were washed three times with TBS-T, 200 μL per well. Fifty […] of secondary antibody cocktail in LI-COR blocking solution (anti-rabbit_800 nm and anti-mouse_680 nm) was added to all wells (diluted 1:5000). The plates were incubated at room temperature for at least one hour while protected from light. The plates were washed twice with TBS-T, 200 μL per well. […]

T1 sequence (P51531 whole entry): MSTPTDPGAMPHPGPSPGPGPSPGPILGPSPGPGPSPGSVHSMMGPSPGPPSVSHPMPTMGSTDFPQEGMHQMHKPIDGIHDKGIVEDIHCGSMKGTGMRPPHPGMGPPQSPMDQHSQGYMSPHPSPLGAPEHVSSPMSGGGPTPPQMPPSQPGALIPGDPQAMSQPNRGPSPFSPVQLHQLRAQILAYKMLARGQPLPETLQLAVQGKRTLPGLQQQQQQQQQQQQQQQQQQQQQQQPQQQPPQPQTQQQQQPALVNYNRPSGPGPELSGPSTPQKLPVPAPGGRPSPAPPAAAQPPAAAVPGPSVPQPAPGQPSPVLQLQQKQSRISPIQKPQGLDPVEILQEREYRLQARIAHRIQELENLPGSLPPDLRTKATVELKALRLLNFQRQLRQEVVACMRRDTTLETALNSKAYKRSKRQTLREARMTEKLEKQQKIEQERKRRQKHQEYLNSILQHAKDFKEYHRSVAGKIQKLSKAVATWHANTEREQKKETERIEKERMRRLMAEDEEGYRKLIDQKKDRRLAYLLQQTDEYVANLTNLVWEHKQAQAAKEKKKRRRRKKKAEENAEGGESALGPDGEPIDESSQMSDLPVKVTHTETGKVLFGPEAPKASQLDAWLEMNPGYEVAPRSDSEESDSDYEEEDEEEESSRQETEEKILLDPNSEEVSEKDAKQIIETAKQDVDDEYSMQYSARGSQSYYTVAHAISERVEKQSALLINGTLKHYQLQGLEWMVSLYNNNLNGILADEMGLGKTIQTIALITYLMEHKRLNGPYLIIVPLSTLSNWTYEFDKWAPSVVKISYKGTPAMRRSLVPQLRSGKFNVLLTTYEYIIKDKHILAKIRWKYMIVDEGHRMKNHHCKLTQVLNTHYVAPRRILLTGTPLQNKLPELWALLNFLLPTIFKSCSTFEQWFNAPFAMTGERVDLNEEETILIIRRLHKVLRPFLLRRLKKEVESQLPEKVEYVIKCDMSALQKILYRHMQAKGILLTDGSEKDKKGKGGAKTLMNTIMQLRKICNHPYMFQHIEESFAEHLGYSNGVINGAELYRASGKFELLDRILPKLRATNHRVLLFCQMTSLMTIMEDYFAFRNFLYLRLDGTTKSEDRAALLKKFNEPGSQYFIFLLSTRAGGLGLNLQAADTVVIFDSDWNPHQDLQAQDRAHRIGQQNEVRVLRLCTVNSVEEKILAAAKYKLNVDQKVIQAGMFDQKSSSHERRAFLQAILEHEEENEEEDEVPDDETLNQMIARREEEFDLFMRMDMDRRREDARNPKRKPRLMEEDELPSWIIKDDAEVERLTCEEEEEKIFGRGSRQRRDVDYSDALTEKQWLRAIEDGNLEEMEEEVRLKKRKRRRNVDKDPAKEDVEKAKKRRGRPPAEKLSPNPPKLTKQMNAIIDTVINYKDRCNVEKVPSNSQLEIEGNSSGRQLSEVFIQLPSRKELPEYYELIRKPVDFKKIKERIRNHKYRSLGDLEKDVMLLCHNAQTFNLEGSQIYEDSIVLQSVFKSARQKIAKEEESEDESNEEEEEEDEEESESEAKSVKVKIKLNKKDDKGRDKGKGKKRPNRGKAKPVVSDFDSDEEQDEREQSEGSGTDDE

Structure (SMILES) | DC50 | Dmax
CC(C)[C@@H](C(=O)N1C[C@H](O)C[C@H]1C(=O)N[C@@H](C)c1ccc(-c2ccnn2C)cc1)c1cc(N2CCC(CN3CCC(O[C@H]4C[C@H](Cn5cc(-c6cn7cc(-c8ccccc8O)nc7nc6N)cn5)C4)CC3)CC2)no1 [Compound 42, (2S,4R)-4-hydroxy-N-[(1S)-1-[4-(1-methyl-1H-pyrazol-5-yl)phenyl]ethyl]-1-[(2R)-3-methyl-2-{3-[4-({4-[(1r,3r)-3-({4-[7-amino-2-(2-hydroxyphenyl)imidazo[1,2-a]pyrimidin-6-yl]-1H-pyrazol-1-yl}methyl)cyclobutoxy]piperidin-1-yl}methyl)piperidin-1-yl]-1,2-oxazol-5-yl}butanoyl]pyrrolidine-2-carboxamide] | < 2.5 nM | > 75%
Cc1ncsc1-c1ccc([C@H](C)NC(=O)[C@@H]2C[C@@H](O)CN2C(=O)[C@@H](c2cc(N3CCC(CN4CCC(O[C@H]5C[C@H](N6CCN(C[C@@H]7[C@H]8CN(c9cc(-c%10ccccc%10O)nnc9N)C[C@@H]78)CC6)C5)CC4)CC3)no2)C(C)C)cc1 [Compound 9, (2S,4R)-4-hydroxy-N-[(1S)-1-[4-(4-methyl-1,3-thiazol-5-yl)phenyl]ethyl]-1-[(2R)-3-methyl-2-{3-[4-({4-[(1r,3r)-3-(4-{[(1R,5S,6S)-3-[3-amino-6-(2-hydroxyphenyl)pyridazin-4-yl]-3-azabicyclo[3.1.0]hexan-6-yl]methyl}piperazin-1-yl)cyclobutoxy]piperidin-1-yl}methyl)piperidin-1-yl]-1,2-oxazol-5-yl}butanoyl]pyrrolidine-2-carboxamide] | < 2.5 nM | > 75%
Cc1ncsc1-c1ccc([C@H](C)NC(=O)[C@@H]2C[C@@H](O)CN2C(=O)[C@@H](c2cc(N3CCC(CN4CCC(O[C@H]5C[C@H](n6cnc(CN7C8CCC7CN(c7cc(-c9ccccc9O)nnc7N)C8)c6)C5)CC4)CC3)no2)C(C)C)cc1 [Compound 3, (2S,4R)-4-hydroxy-N-[(1S)-1-[4-(4-methyl-1,3-thiazol-5-yl)phenyl]ethyl]-1-[(2R)-3-methyl-2-{3-[4-({4-[(1r,3r)-3-[4-({3-[3-amino-6-(2-hydroxyphenyl)pyridazin-4-yl]-3,8-diazabicyclo[3.2.1]octan-8-yl}methyl)-1H-imidazol-1-yl]cyclobutoxy]piperidin-1-yl}methyl)piperidin-1-yl]-1,2-oxazol-5-yl}butanoyl]pyrrolidine-2-carboxamide] | < 2.5 nM | > 75%
Cc1ncsc1-c1ccc([C@H](C)NC(=O)[C@@H]2C[C@@H](O)CN2C(=O)[C@@H](c2cc(N3CCC(CN4CCC(O[C@H]5C[C@H](N6CCC(CN7CC8(C7)CN(c7cc(-c9ccccc9O)nnc7N)CCO8)CC6)C5)CC4)CC3)no2)C(C)C)cc1 [Compound 11, (2S,4R)-4-hydroxy-N-[(1S)-1-[4-(4-methyl-1,3-thiazol-5-yl)phenyl]ethyl]-1-[(2R)-3-methyl-2-{3-[4-({4-[(1r,3r)-3-[4-({8-[3-amino-6-(2-hydroxyphenyl)pyridazin-4-yl]-5-oxa-2,8-diazaspiro[3.5]nonan-2-yl}methyl)piperidin-1-yl]cyclobutoxy]piperidin-1-yl}methyl)piperidin-1-yl]-1,2-oxazol-5-yl}butanoyl]pyrrolidine-2-carboxamide] | 2.5 to 10 nM | > 75%
Cc1ncsc1-c1ccc([C@H](C)NC(=O)[C@@H]2C[C@@H](O)CN2C(=O)[C@@H](c2cc(N3CCC(CN4CCC5(CC4)CC(N4CCO[C@@H](CN6CCOC7(CCCN(c8cc(-c9ccccc9O)nnc8N)C7)C6)C4)C5)CC3)no2)C(C)C)cc1 (stereo partly drawn) [Compound 22, (2S,4R)-1-[(2R)-2-{3-[4-({2-[(2S)-2-({8-[3-amino-6-(2-hydroxyphenyl)pyridazin-4-yl]-1-oxa-4,8-diazaspiro[5.5]undecan-4-yl}methyl)morpholin-4-yl]-7-azaspiro[3.5]nonan-7-yl}methyl)piperidin-1-yl]-1,2-oxazol-5-yl}-3-methylbutanoyl]-4-hydroxy-N-[(1S)-1-[4-(4-methyl-1,3-thiazol-5-yl)phenyl]ethyl]pyrrolidine-2-carboxamide] | < 2.5 nM | > 75%
CC(C)[C@@H](C(=O)N1C[C@H](O)C[C@H]1C(=O)N[C@@H](C)c1ccc(C#N)cc1)c1cc(OCCN2CCN(CCOc3cc(N4CCN(c5cc(-c6ccccc6O)nnc5N)CC45COC5)ccn3)CC2)no1 [Compound 19, (2S,4R)-1-[(2R)-2-{3-[2-(4-{2-[(4-{8-[3-amino-6-(2-hydroxyphenyl)pyridazin-4-yl]-2-oxa-5,8-diazaspiro[3.5]nonan-5-yl}pyridin-2-yl)oxy]ethyl}piperazin-1-yl)ethoxy]-1,2-oxazol-5-yl}-3-methylbutanoyl]-N-[(1S)-1-(4-cyanophenyl)ethyl]-4-hydroxypyrrolidine-2-carboxamide] | 2.5 to 10 nM | > 75%
Cc1ncsc1-c1ccc([C@H](C)NC(=O)[C@@H]2C[C@@H](O)CN2C(=O)[C@H](c2cc(OCCN3CCN(CCOc4cc(N5CCN(c6cc(-c7ccccc7O)nnc6N)CC56COC6)ccn4)CC3)no2)C(C)C)cn1 [Compound 16, (2S,4R)-1-[(2S)-2-{3-[2-(4-{2-[(4-{8-[3-amino-6-(2-hydroxyphenyl)pyridazin-4-yl]-2-oxa-5,8-diazaspiro[3.5]nonan-5-yl}pyridin-2-yl)oxy]ethyl}piperazin-1-yl)ethoxy]-1,2-oxazol-5-yl}-3-methylbutanoyl]-4-hydroxy-N-[(1S)-1-[6-(4-methyl-1,3-thiazol-5-yl)pyridin-3-yl]ethyl]pyrrolidine-2-carboxamide] | ≥ 30 nM | –
Cc1ncsc1-c1ccc([C@H](C)NC(=O)[C@@H]2C[C@@H](O)CN2C(=O)[C@@H](c2cc(N3CCC(CN4CCC(O[C@H]5C[C@H](Oc6cc(CCc7cc(-c8ccccc8O)nnc7N)ccn6)C5)CC4)CC3)no2)C(C)C)cc1 [Compound 1, (2S,4R)-4-hydroxy-N-[(1S)-1-[4-(4-methyl-1,3-thiazol-5-yl)phenyl]ethyl]-1-[(2R)-3-methyl-2-{3-[4-({4-[(1r,3r)-3-[(4-{2-[3-amino-6-(2-hydroxyphenyl)pyridazin-4-yl]ethyl}pyridin-2-yl)oxy]cyclobutoxy]piperidin-1-yl}methyl)piperidin-1-yl]-1,2-oxazol-5-yl}butanoyl]pyrrolidine-2-carboxamide] | 2.5 to 10 nM | > 75%
Cc1ncsc1-c1ccc([C@H](C)NC(=O)[C@@H]2C[C@@H](O)CN2C(=O)[C@@H](c2cc(OCCN3CCN(CCOc4cc(N5CCN(c6cc(-c7ccccc7O)nnc6N)CC56COC6)ccn4)CC3)no2)C(C)C)cc1 [Compound 15, (2S,4R)-1-[(2R)-2-{3-[2-(4-{2-[(4-{8-[3-amino-6-(2-hydroxyphenyl)pyridazin-4-yl]-2-oxa-5,8-diazaspiro[3.5]nonan-5-yl}pyridin-2-yl)oxy]ethyl}piperazin-1-yl)ethoxy]-1,2-oxazol-5-yl}-3-methylbutanoyl]-4-hydroxy-N-[(1S)-1-[4-(4-methyl-1,3-thiazol-5-yl)phenyl]ethyl]pyrrolidine-2-carboxamide] | < 2.5 nM | > 75%
Cc1ncsc1-c1ccc([C@H](C)NC(=O)[C@@H]2C[C@@H](O)CN2C(=O)[C@H](c2cc(OCCCC#Cc3cn4cc(-c5ccccc5O)nc4nc3N)no2)C(C)C)cc1 [Compound 30, (2S,4R)-1-[(2S)-2-[3-({5-[7-amino-2-(2-hydroxyphenyl)imidazo[1,2-a]pyrimidin-6-yl]pent-4-yn-1-yl}oxy)-1,2-oxazol-5-yl]-3-methylbutanoyl]-4-hydroxy-N-[(1S)-1-[4-(4-methyl-1,3-thiazol-5-yl)phenyl]ethyl]pyrrolidine-2-carboxamide] | ≥ 30 nM | –
